Data: patent publication US11071731B2, “Allosteric modulators of the mu opioid receptor” (Chiromics, LLC, priority 2017, dated 2021)

Tests used:
mu opioid receptor (MOR) [1] = biological target: T1, mu opioid receptor (MOR) (Homo sapiens, UniProt P35372); experiment: PathHunter β-arrestin recruitment assay, PAM mode with EC20 endomorphin-1; type: cell-based; settings: for allosteric activity for β-arrestin recruitment: EC20 endomorphin-1 concentration of 4.5 nM
How it was run: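 β-Arrestin recruitment to the receptor was tracked by chemiluminescent β-galactosidase activity from complementing fragments (ED on receptor, EA on β-arrestin). Per-compound outputs were EC50 and percent maximal response.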

mu opioid receptor (MOR) [2] = biological target: T1, mu opioid receptor (MOR); experiment: Hit Hunter cAMP signaling assay (adenylyl cyclase inhibition), PAM mode with EC20 endomorphin-1; type: cell-based; settings: for allosteric activity for cAMP signaling: EC20 endomorphin-1 concentration of 0.45 nM
[3] = maximal response for β-arrestin recruitment
[4] = β-arrestin recruitment, read-out: β-arr. EC50
[5] = cAMP EC50, adenylyl cyclase inhibition
[6] = maximal response for adenylyl cyclase inhibition
[7] = adenylyl cyclase inhibition, read-out: cAMP EC50

T1 sequence (P35372 whole entry, the tested form may be a part): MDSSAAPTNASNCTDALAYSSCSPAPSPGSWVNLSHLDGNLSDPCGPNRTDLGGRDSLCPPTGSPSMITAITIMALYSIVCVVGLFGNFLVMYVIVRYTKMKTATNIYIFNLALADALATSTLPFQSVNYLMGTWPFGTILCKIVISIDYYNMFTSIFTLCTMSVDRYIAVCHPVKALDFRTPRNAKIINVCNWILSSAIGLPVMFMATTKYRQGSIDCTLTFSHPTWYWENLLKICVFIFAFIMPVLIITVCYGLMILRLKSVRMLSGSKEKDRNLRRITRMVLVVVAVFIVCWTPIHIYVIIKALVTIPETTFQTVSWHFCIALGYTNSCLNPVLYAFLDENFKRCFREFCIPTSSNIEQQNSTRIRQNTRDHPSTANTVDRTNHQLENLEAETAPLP

Structure (SMILES)	β-arr Max. Resp. (mu opioid receptor (MOR) [1]; [3])	EC50 (mu opioid receptor (MOR) [1]; [4]) [nM]	EC50 (mu opioid receptor (MOR) [2]; [5]) [nM]	cAMP Max. Resp. (mu opioid receptor (MOR) [2]; [6])	also measured
[2H]C1(c2cccc(C(F)(F)F)c2)C(F)CCCN1c1nc(Cl)ncc1F (centres unmarked) [compound 207]	F (F represents a maximal response of > 60%)	700 to 2100	700 to 2100	D (D represents a maximal response of < 40%)	β-arr. Max Resp. (mu opioid receptor (MOR) [1]; maximal response for β-arrestin recruitment, Table 3): 116; EC50 (mu opioid receptor (MOR) [1]; β-arrestin recruitment, Table 3, read-out: β-arr. EC50): 1170 nM; EC50 (mu opioid receptor (MOR) [2]; cAMP EC50 (nM), adenylyl cyclase inhibition, Table 3): 969 nM; cAMP Max Resp. (mu opioid receptor (MOR) [2]; maximal response for adenylyl cyclase inhibition, Table 3): 34
Fc1ccc(C2C(F)CCCN2c2nc(Cl)ncc2F)cc1Br (centres unmarked) [compound 210]	F (F represents a maximal response of > 60%)	> 2100	700 to 2100	E (E represents a maximal response of 40-60%)	–
Fc1ccc(C2C(F)CCCN2c2nc(Cl)ncc2F)cc1Br (centres unmarked) [compound 211]	F (F represents a maximal response of > 60%)	> 2100	> 2100	E (E represents a maximal response of 40-60%)	–
COc1ccc(C2C(F)CCCN2c2nc(Cl)ncc2F)cc1Br (centres unmarked) [compound 212]	F (F represents a maximal response of > 60%)	> 2100	> 2100	E (E represents a maximal response of 40-60%)	–
COc1ccc(C2C(F)CCCN2c2nc(Cl)ncc2F)cc1Br (centres unmarked) [compound 213]	F (F represents a maximal response of > 60%)	> 2100	–	D (D represents a maximal response of < 40%)	EC50 (mu opioid receptor (MOR) [2]; read-out: cAMP EC50, adenylyl cyclase inhibition): > 2100 nM
Fc1ccc(C2C(F)CCCN2c2nc(Cl)ncc2F)cc1Br (centres unmarked) [compound 214]	–	> 2100	–	–	EC50 (mu opioid receptor (MOR) [2]; [7]): 700 to 2100 nM
[2H]C1(c2ccc(F)c(Br)c2)C(F)CCCN1c1nc(Cl)ncc1F (centres unmarked) [compound 214]	F (F represents a maximal response of > 60%)	–	–	E (E represents a maximal response of 40-60%)	–
COc1ccc(C2CCCCN2c2cc(F)cc(Cl)n2)cc1Br (centres unmarked) [compound 215]	F (F represents a maximal response of > 60%)	700 to 2100	> 2100	D (D represents a maximal response of < 40%)	–
Fc1cc(C2C3CCC(C3)N2Cc2cc(Cl)ccc2F)cc(C(F)(F)F)c1 (centres unmarked) [compound 216]	F (F represents a maximal response of > 60%)	< 700	> 2100	D (D represents a maximal response of < 40%)	allosteric activity for β-arrestin recruitment (mu opioid receptor (MOR) [1]): high positive allosteric activity; allosteric activity for β-arrestin recruitment (mu opioid receptor (MOR) [1]; listed as Compound No. 216): high allosteric modulatory capability; allosteric activity for cAMP signaling (mu opioid receptor (MOR) [2]): silent allosteric activity
Fc1ccc(C2C3CCC(C3)N2Cc2cc(Cl)ccc2F)cc1Cl (centres unmarked) [compound 217]	F (F represents a maximal response of > 60%)	–	–	D (D represents a maximal response of < 40%)	EC50 (mu opioid receptor (MOR) [1]; β-arr. EC50, β-arrestin recruitment): 700 to 2100 nM; EC50 (mu opioid receptor (MOR) [2]): > 2100 nM
N#Cc1cccc(N2CCCCC2c2ccc(F)c(Cl)c2)c1 (centres unmarked) [compound 218]	E (E represents a maximal response of 40-60%)	700 to 2100	–	D (D represents a maximal response of < 40%)	EC50 (mu opioid receptor (MOR) [2]; [7]): > 2100 nM
COc1ccc(C2C(F)CCCN2S(=O)(=O)c2ccc(Cl)cc2)cc1Br (centres unmarked) [compound 219]	F (F represents a maximal response of > 60%)	700 to 2100	< 700	F (F represents a maximal response of > 60%)	allosteric activity for β-arrestin recruitment (mu opioid receptor (MOR) [1]): low positive allosteric activity; signaling preference β-arrestin vs cAMP (mu opioid receptor (MOR) [1]; comparison of β-arrestin and cAMP assays): preferential signaling via cAMP over β-arrestin; allosteric activity for cAMP signaling (mu opioid receptor (MOR) [2]): high positive allosteric activity
COc1ncc(F)c(N2CCCCC2c2ccc(OC)c(Br)c2)n1 (centres unmarked) [compound 225]	F (F represents a maximal response of > 60%)	> 2100	> 2100	F (F represents a maximal response of > 60%)	–
COc1ccc(C2CCCCN2c2ccnc(Cl)n2)cc1Br (centres unmarked) [compound 226]	F (F represents a maximal response of > 60%)	> 2100	> 2100	F (F represents a maximal response of > 60%)	–
COc1ccc(C2CCCCN2c2cccc(C(F)(F)F)n2)cc1Br (centres unmarked) [compound 227]	F (F represents a maximal response of > 60%)	> 2100	> 2100	F (F represents a maximal response of > 60%)	–
COc1ccc(C2CCCCN2c2ncnc(Cl)c2F)cc1Br (centres unmarked) [compound 228]	F (F represents a maximal response of > 60%)	> 2100	> 2100	F (F represents a maximal response of > 60%)	–
COc1ccc(C2CCCCN2c2cncc(Cl)n2)cc1Br (centres unmarked) [compound 229]	F (F represents a maximal response of > 60%)	> 2100	> 2100	F (F represents a maximal response of > 60%)	–
COc1ccc(C2CCCCN2c2cncc(C(F)(F)F)n2)cc1Br (centres unmarked) [compound 230]	F (F represents a maximal response of > 60%)	> 2100	> 2100	F (F represents a maximal response of > 60%)	–

Structure (SMILES)	β-arr Max. Resp. (mu opioid receptor (MOR) [1]; [3])	EC50 (mu opioid receptor (MOR) [1]; [4]) [nM]	EC50 (mu opioid receptor (MOR) [2]; [5]) [nM]	cAMP Max. Resp. (mu opioid receptor (MOR) [2]; [6])	also measured
COc1ccc(C2CCCCN2c2ccc(Br)cn2)cc1Br (centres unmarked) [compound 231]	E (E represents a maximal response of 40-60%)	> 2100	> 2100	E (E represents a maximal response of 40-60%)	–
COc1ccc(C2CCCCN2c2ccc(C(F)(F)F)cn2)cc1Br (centres unmarked) [compound 232]	F (F represents a maximal response of > 60%)	> 2100	> 2100	F (F represents a maximal response of > 60%)	–
COc1ccc(C2CCCCN2c2ncncc2F)cc1Br (centres unmarked) [compound 233]	F (F represents a maximal response of > 60%)	> 2100	> 2100	F (F represents a maximal response of > 60%)	–
COc1ccc(C2CCCCN2c2nc(Cl)ncc2C)cc1Br (centres unmarked) [compound 234]	F (F represents a maximal response of > 60%)	> 2100	> 2100	F (F represents a maximal response of > 60%)	–
COc1ccc(C2CCCCN2c2nc(Cl)ncc2OC)cc1Br (centres unmarked) [compound 235]	F (F represents a maximal response of > 60%)	> 2100	> 2100	F (F represents a maximal response of > 60%)	–
COc1ccc(C2CCCCN2c2ncc(C)c(Cl)n2)cc1Br (centres unmarked) [compound 236]	F (F represents a maximal response of > 60%)	> 2100	> 2100	F (F represents a maximal response of > 60%)	–
COc1ccc(C2CC(C)CN2c2nc(Cl)ncc2F)cc1Br (centres unmarked) [compound 237]	E (E represents a maximal response of 40-60%)	> 2100	–	D (D represents a maximal response of < 40%)	EC50 (mu opioid receptor (MOR) [2]; [7]): > 2100 nM
O=C1CCN(c2nc(Cl)ncc2F)C(c2cc(F)cc(C(F)(F)F)c2)C1 (centres unmarked) [compound 238]	E (E represents a maximal response of 40-60%)	> 2100	> 2100	D (D represents a maximal response of < 40%)	–
O=C1CCN(c2nc(Cl)ncc2F)C(c2cccc(C(F)(F)F)c2)C1 (centres unmarked) [compound 239]	E (E represents a maximal response of 40-60%)	> 2100	> 2100	D (D represents a maximal response of < 40%)	–
O=C1CCN(c2nc(Cl)ncc2F)C(c2ccc(F)c(Br)c2)C1 (centres unmarked) [compound 240]	D (D represents a maximal response of < 40%)	> 2100	> 2100	E (E represents a maximal response of 40-60%)	–
OC1CCN(c2nc(Cl)ncc2F)C(c2ccc(F)c(Br)c2)C1 (centres unmarked) [compound 241]	F (F represents a maximal response of > 60%)	> 2100	> 2100	E (E represents a maximal response of 40-60%)	–
CN(C)c1ncc(F)c(N2CCCCC2c2cccc(F)n2)n1 (centres unmarked) [compound 242]	D (D represents a maximal response of < 40%)	> 2100	> 2100	D (D represents a maximal response of < 40%)	–
CN(C)c1cccc(C2CCCCN2c2nc(N(C)C)ncc2F)n1 (centres unmarked) [compound 243]	F (F represents a maximal response of > 60%)	> 2100	> 2100	E (E represents a maximal response of 40-60%)	–
Fc1ccc(C2CC=CCN2c2nc(Cl)ncc2F)cc1Br (centres unmarked) [compound 244]	F (F represents a maximal response of > 60%)	< 700	–	D (D represents a maximal response of < 40%)	EC50 (mu opioid receptor (MOR) [2]; [7]): < 700 nM
COc1ccc(C2CCCCN2Cc2cccc(Cl)c2F)cc1Br (centres unmarked) [compound 245]	D (D represents a maximal response of < 40%)	> 2100	> 2100	D (D represents a maximal response of < 40%)	–
Fc1ccc(C2CC(F)(F)CCN2c2nc(Cl)ncc2F)cc1Br (centres unmarked) [compound 246]	F (F represents a maximal response of > 60%)	700 to 2100	700 to 2100	D (D represents a maximal response of < 40%)	–
CCCC1CCCN(c2nc(Cl)ncc2F)C1c1cccc(C(F)(F)F)c1 (centres unmarked) [compound 247]	F (F represents a maximal response of > 60%)	> 2100	–	E (E represents a maximal response of 40-60%)	EC50 (mu opioid receptor (MOR) [2]; [7]): > 2100 nM
